Values quoted from earlier work, collected in patent US20230383363A1, “METHOD FOR DETERMINING SENSITIVITY TO PARP INHIBITOR OR DNA DAMAGING AGENT USING NON-FUNCTIONAL TRANSCRIPTOME” (GC GENOME CORPORATION, priority 2020, published 2023).

Settings: patients selected by FoundationFocusCDxBRCA (BRCA1 and BRCA2 mutations)

Compound: CNCc1ccc(-c2[nH]c3cc(F)cc4c3c2CCNC4=O)cc1 [rucaparib]
- overall response rate (ORR): 53.8%
